{"source": "patent US8951992B2", "about": "“Mycobacterium membrane protease as a target for inhibitors of intrabacterial pH homeostasis” (Cornell University, priority 2008, dated 2015)", "assay_type_in_all_cases": "cell-based, Mycobacterium tuberculosis", "key": {"[1]": {"system": "Wild-type H37Rv transformed with pH-GFP", "conditions": "pH 4.5"}, "[2]": {"system": "Rv3671c mutant in IFN-γ-activated macrophages"}, "[3]": {"system": "Rv3671c mutant in IFN-γ-activated macrophages", "remark": "listed apart in the source"}, "Rv3671c mutant [4]": {"system": "Rv3671c mutant"}, "Rv3671c mutant [5]": {"system": "Rv3671c mutant", "remark": "listed apart in the source"}, "Rv3671c mutant [6]": {"system": "Rv3671c mutant", "remark": "listed apart in the source"}, "Rv3671c mutant [7]": {"system": "Rv3671c mutant", "remark": "listed apart in the source"}, "lysX mutant": {"system": "lysX mutant"}}}
{"smiles": "CC[C@@H](CO)NCCN[C@@H](CC)CO", "note": "[Ethambutol]", "values": [{"measurement": "concentrations causing a substantial decline in pHIB", "setting": "[1]", "value": "≥ 8", "unit": "μg/ml"}]}
{"smiles": "Cl.N", "note": "[NH4Cl]", "values": [{"measurement": "effect on pHIB of the Rv3671c mutant", "setting": "[2]", "value": "protected"}, {"measurement": "effect on survival of the Rv3671c mutant", "setting": "[3]", "value": "restored"}]}
{"smiles": "CCCCCCCCCCCCOS(=O)(=O)[O-].[Na+]", "note": "[SDS]", "values": [{"measurement": "sensitivity of the Rv3671c mutant to SDS", "setting": "Rv3671c mutant [4]", "value": "hypersensitive"}]}
{"smiles": "N#CC(C#N)=NNc1cccc(Cl)c1", "note": "[carbonyl cyanide m-chlorophenylhydrazone]", "values": [{"measurement": "effect on the Rv3671c mutant's pHIB", "setting": "Rv3671c mutant [5]", "value": "further reduced"}, {"measurement": "effect on the Rv3671c mutant's survival", "setting": "Rv3671c mutant [6]", "value": "further attenuated"}]}
{"smiles": "CC[C@H]1OC(=O)[C@H](C)[C@@H](O[C@H]2C[C@@](C)(OC)[C@@H](O)[C@H](C)O2)[C@H](C)[C@@H](O[C@@H]2O[C@H](C)C[C@H](N(C)C)[C@H]2O)[C@](C)(O)C[C@@H](C)C(=O)[C@H](C)[C@@H](O)[C@]1(C)O", "note": "[erythromycin]", "values": [{"measurement": "sensitivity of the Rv3671c mutant to the antibiotic", "setting": "Rv3671c mutant [7]", "value": "hypersensitive"}, {"measurement": "sensitivity of the lysX mutant to the antibiotic", "setting": "lysX mutant", "value": "hypersensitive"}]}
{"smiles": "NNC(=O)c1ccncc1", "note": "[isoniazid]", "values": [{"measurement": "effect on Mtb's pHIB", "setting": "[1]", "value": "did not significantly alter pHIB"}]}
{"smiles": "CC[C@@]1([C@@H]2O[C@@H]([C@H]3O[C@@](O)(CO)[C@H](C)C[C@@H]3C)C[C@@H]2C)CC[C@H]([C@]2(C)CC[C@]3(C[C@H](O)[C@@H](C)[C@@H]([C@@H](C)[C@@H](OC)[C@H](C)C(=O)O)O3)O2)O1", "note": "[monensin]", "values": [{"measurement": "effect on Mtb's pHIB", "setting": "[1]", "value": "concentration dependent decline in pHIB"}, {"measurement": "effect on the Rv3671c mutant's pHIB", "setting": "Rv3671c mutant [5]", "value": "further reduced"}, {"measurement": "effect on the Rv3671c mutant's survival", "setting": "Rv3671c mutant [6]", "value": "further attenuated"}]}
{"smiles": "NC(=O)c1cnccn1", "note": "[pyrazinmide]", "values": [{"measurement": "effect on Mtb's pHIB", "setting": "[1]", "value": "did not significantly alter pHIB"}]}
{"smiles": "CO[C@H]1/C=C/O[C@@]2(C)Oc3c(C)c(O)c4c(O)c(c(/C=N/N5CCN(C)CC5)c(O)c4c3C2=O)NC(=O)/C(C)=C\\C=C\\[C@H](C)[C@H](O)[C@@H](C)[C@@H](O)[C@@H](C)[C@H](OC(C)=O)[C@@H]1C", "note": "[rifampin]", "values": [{"measurement": "effect on Mtb's pHIB", "setting": "[1]", "value": "did not significantly alter pHIB"}, {"measurement": "sensitivity of the Rv3671c mutant to the antibiotic", "setting": "Rv3671c mutant [7]", "value": "hypersensitive"}, {"measurement": "sensitivity of the lysX mutant to the antibiotic", "setting": "lysX mutant", "value": "hypersensitive"}]}
{"smiles": "[H]/N=C(/N)N[C@H]1[C@H](O)[C@@H](O)[C@H](O[C@@H]2O[C@@H](C)[C@](O)(C=O)[C@H]2O[C@@H]2O[C@@H](CO)[C@H](O)[C@@H](O)[C@@H]2NC)[C@@H](N/C(N)=N\\[H])[C@@H]1O", "note": "[streptomycin]", "values": [{"measurement": "effect on Mtb's pHIB", "setting": "[1]", "value": "did not significantly alter pHIB"}]}
